Measured values published in PubChem BioAssay AID1745844 (Carcinogenic Potency Database (CPDB), 2022).
The source made the active and inactive calls. How the calls were made is not given here.

Test system: rodent lifetime carcinogenesis bioassay, tumor incidence TD50
Experiment: carcinogenic potency in animals, long-term in vivo studies, CPDB compilation (AID 1745844)
[1] = mouse, strain B6C3F1, females, in feed, site: any site (literature study), lesion: several types, types named in the paper, dosed 103 weeks, study length 104 weeks
[2] = mouse, strain B6C3F1, females, in feed, site: liver, lesion: hepatocellular adenoma + hepatocellular carcinoma + neoplastic nodule, dosed 103 weeks, study length 104 weeks
[3] = mouse, strain B6C3F1, females, in feed, site: lung, lesion: alveolar/bronchiolar adenoma + alveolar/bronchiolar carcinoma, dosed 103 weeks, study length 104 weeks
[4] = mouse, strain B6C3F1, males, in feed, site: any site (literature study), lesion: several types, types named in the paper, dosed 103 weeks, study length 104 weeks

**Q.** How did the TD50 [1] turn out when `Cc1noc(NS(=O)(=O)c2ccc(N)cc2)c1C` was run?
**A.** 8180 mg/kg/day

**Q.** And the TD50 [2]?
**A.** 2650 mg/kg/day

**Q.** And the TD50 (mouse, strain B6C3F1, females, in feed, site: liver, lesion: hepatocellular carcinoma, dosed 103 weeks, study length 104 weeks)?
**A.** 2650 mg/kg/day (inactive)

**Q.** And the TD50 [3]?
**A.** 11900 mg/kg/day

**Q.** What about the carcinogen call [4] of the same compound?
**A.** negative (inactive)

**Q.** What about the TD50 (mouse, strain B6C3F1, males, in feed, site: liver, lesion: hepatocellular adenoma + hepatocellular carcinoma + neoplastic nodule, dosed 103 weeks, study length 104 weeks) of the same compound?
**A.** 6910 mg/kg/day

**Q.** What about the TD50 (mouse, strain B6C3F1, males, in feed, site: lung, lesion: alveolar/bronchiolar adenoma + alveolar/bronchiolar carcinoma, dosed 103 weeks, study length 104 weeks) of the same compound?
**A.** 49500 mg/kg/day

**Q.** And the carcinogen call (rat, strain Fischer 344, females, in feed, site: any site (literature study), lesion: several types, types named in the paper, dosed 103 weeks, study length 106 weeks)?
**A.** negative (inactive)

**Q.** What about the TD50 (rat, strain Fischer 344, males, in feed, site: any site (literature study), lesion: several types, types named in the paper, dosed 103 weeks, study length 105 weeks) of the same compound?
**A.** 135 mg/kg/day (inactive)

**Q.** And the TD50 (rat, strain Fischer 344, males, in feed, site: liver, lesion: hepatocellular adenoma + hepatocellular carcinoma + neoplastic nodule, dosed 103 weeks, study length 105 weeks)?
**A.** 26300 mg/kg/day

**Q.** What does the source list for `C=C(C)C`?
**A.** carcinogen call (mouse, strain B6C3F1, females, inhaled, site: any site (literature study), lesion: several types, types named in the paper, dosed 105 weeks, study length 105 weeks): negative (inactive); TD50 (mouse, strain B6C3F1, females, inhaled, site: liver, lesion: hepatocellular adenoma + hepatoblastoma + hepatocellular carcinoma, dosed 105 weeks, study length 105 weeks): 47800 mg/kg/day; TD50 (mouse, strain B6C3F1, males, inhaled, site: any site (literature study), lesion: several types, types named in the paper, dosed 104 weeks, study length 104 weeks): 8840 mg/kg/day (inactive); carcinogen call (rat, strain Fischer 344, females, inhaled, site: any site (literature study), lesion: several types, types named in the paper, dosed 104 weeks, study length 104 weeks): negative (inactive); TD50 (rat, strain Fischer 344, females, inhaled, site: liver, lesion: hepatocellular adenoma + hepatoblastoma + hepatocellular carcinoma, dosed 104 weeks, study length 104 weeks): 30100 mg/kg/day; TD50 (rat, strain Fischer 344, males, inhaled, site: thyroid gland, lesion: follicular-cell carcinoma, dosed 104 weeks, study length 104 weeks): 3550 mg/kg/day

**Q.** With `O=C(NCC1CCCCN1)c1cc(OCC(F)(F)F)ccc1OCC(F)(F)F` (centres undefined) as the compound, how does the carcinogen call (mouse, strain Charles River CD1, females, in feed, site: liver, lesion: adenoma, dosed 78 weeks, study length 78 weeks) read?
**A.** negative (inactive)

**Q.** And the TD50 (mouse, strain Charles River CD1, females, in feed, site: lung, lesion: adenoma, dosed 78 weeks, study length 78 weeks)?
**A.** 938 mg/kg/day (inactive)

**Q.** And the carcinogen call (mouse, strain Charles River CD1, males, in feed, site: liver, lesion: adenoma, dosed 78 weeks, study length 78 weeks)?
**A.** negative (inactive)

**Q.** What about the carcinogen call (mouse, strain Charles River CD1, males, in feed, site: liver, lesion: hepatocellular carcinoma, dosed 78 weeks, study length 78 weeks) of the same compound?
**A.** negative (inactive)

**Q.** And the carcinogen call (mouse, strain Charles River CD1, males, in feed, site: lung, lesion: adenoma, dosed 78 weeks, study length 78 weeks)?
**A.** negative (inactive)

**Q.** What about the carcinogen call (rat, strain Charles River Crl:COBS(WI)BR, females, in feed, site: liver, lesion: adenoma, dosed 104 weeks, study length 104 weeks) of the same compound?
**A.** negative (inactive)

**Q.** What about the TD50 (rat, strain Charles River Crl:COBS(WI)BR, males, in feed, site: liver, lesion: adenoma, dosed 104 weeks, study length 104 weeks) of the same compound?
**A.** 3580 mg/kg/day (inactive)

**Q.** And the TD50 (rat, strain Charles River Crl:COBS(WI)BR, males, in feed, site: testis, lesion: interstitial-cell adenoma, dosed 104 weeks, study length 104 weeks)?
**A.** 79.1 mg/kg/day (inactive)

**Q.** For `NC(=O)N(CC(=O)O)N=O`, which TD50 (rat, strain Donryu, females, in drinking water, site: any site (literature study), lesion: several types, types named in the paper, dosed 68 weeks, study length 68 weeks) is on record?
**A.** 1.38 mg/kg/day

**Q.** And the TD50 (rat, strain Donryu, females, in drinking water, site: intestine, lesion: several types, types named in the paper, dosed 68 weeks, study length 68 weeks)?
**A.** 5.37 mg/kg/day

**Q.** And the TD50 (rat, strain Donryu, females, in drinking water, site: mammary gland, lesion: fibroadenoma, dosed 68 weeks, study length 68 weeks)?
**A.** 2.92 mg/kg/day

**Q.** What about the TD50 (rat, strain Donryu, females, in drinking water, site: mammary gland, lesion: several types, types named in the paper, dosed 68 weeks, study length 68 weeks) of the same compound?
**A.** 2.3 mg/kg/day

**Q.** And the TD50 (rat, strain Donryu, females, in drinking water, site: small intestine, lesion: adenocarcinoma, dosed 68 weeks, study length 68 weeks)?
**A.** 11.6 mg/kg/day

**Q.** And the TD50 (rat, strain Donryu, females, in drinking water, site: small intestine, lesion: adenoma, dosed 68 weeks, study length 68 weeks)?
**A.** 8.09 mg/kg/day

**Q.** And the TD50 (rat, strain MRC-Wistar, males, in drinking water, site: any site (literature study), lesion: several types, types named in the paper, dosed 74 weeks, study length 130 weeks)?
**A.** 13.1 mg/kg/day

**Q.** What about the TD50 (rat, strain MRC-Wistar, males, in drinking water, site: epidermis, lesion: several types, types named in the paper, dosed 74 weeks, study length 130 weeks) of the same compound?
**A.** 34.8 mg/kg/day

**Q.** Which TD50 (rat, strain Wistar, males, in feed, site: liver, lesion: hepatocellular carcinoma, dosed 116 weeks, study length 116 weeks) does the source give for `Clc1cccc(-c2cccc(Cl)c2)c1` here?
**A.** 157 mg/kg/day

**Q.** Which carcinogen call (mouse, strain Charles River CD1, females, in feed, site: liver, lesion: several types, types named in the paper, dosed 78 weeks, study length 78 weeks) does the source give for `C[C@]12C=CC(=O)C=C1CC[C@@H]1[C@@H]2C(=O)C[C@@]2(C)[C@H]1CC[C@]2(O)C(=O)CO` here?
**A.** negative (inactive)

**Q.** What about the carcinogen call (mouse, strain Charles River CD1, females, in feed, site: lung, lesion: alveolar/bronchiolar tumor, dosed 78 weeks, study length 78 weeks) of the same compound?
**A.** negative (inactive)

**Q.** What about the carcinogen call (mouse, strain Charles River CD1, females, in feed, site: lung, lesion: undifferentiated carcinoma, dosed 78 weeks, study length 78 weeks) of the same compound?
**A.** negative (inactive)

**Q.** What about the carcinogen call (mouse, strain Charles River CD1, males, in feed, site: liver, lesion: several types, types named in the paper, dosed 78 weeks, study length 78 weeks) of the same compound?
**A.** negative (inactive)

**Q.** What about the carcinogen call (mouse, strain Charles River CD1, males, in feed, site: lung, lesion: alveolar/bronchiolar tumor, dosed 78 weeks, study length 78 weeks) of the same compound?
**A.** negative (inactive)

**Q.** Which TD50 (mouse, strain C17, females, by gavage, site: forestomach, lesion: squamous-cell carcinoma, dosed 40 weeks, study length 104 weeks) does the source give for `O=NN1CCN(N=O)CC1` here?
**A.** 4.66 mg/kg/day

**Q.** What about the TD50 (mouse, strain C17, females, by gavage, site: uterus, lesion: reticulum-cell neoplasm, type A, dosed 40 weeks, study length 104 weeks) of the same compound?
**A.** 4.13 mg/kg/day

**Q.** What about the TD50 (mouse, strain C17, males, by gavage, site: forestomach, lesion: squamous-cell carcinoma, dosed 40 weeks, study length 104 weeks) of the same compound?
**A.** 2.01 mg/kg/day

**Q.** What about the carcinogen call (mouse, strain Swiss, females, in drinking water, site: any site (literature study), lesion: several types, types named in the paper, dosed 52 weeks, study length 100 weeks) of the same compound?
**A.** positive

**Q.** And the TD50 (mouse, strain Swiss, males, in drinking water, site: any site (literature study), lesion: several types, types named in the paper, dosed 52 weeks, study length 100 weeks)?
**A.** 8.24 mg/kg/day

**Q.** What about the TD50 (mouse, strain Swiss, males, in drinking water, site: liver, lesion: hepatocellular carcinoma, dosed 52 weeks, study length 100 weeks) of the same compound?
**A.** 51.9 mg/kg/day

**Q.** And the TD50 (mouse, strain Swiss, males, in drinking water, site: lung, lesion: adenoma, dosed 52 weeks, study length 100 weeks)?
**A.** 8.7 mg/kg/day

**Q.** What does the source list for `Nc1ccc(N)cc1`?
**A.** TD50 [1]: 1500 mg/kg/day (inactive); TD50 [2]: 1370 mg/kg/day; TD50 [3]: 1390 mg/kg/day; carcinogen call [4]: negative (inactive); TD50 (rat, strain Fischer 344, females, in feed, site: adrenal gland, lesion: pheochromocytoma, dosed 80 weeks, study length 80 weeks): 4280 mg/kg/day (inactive); TD50 (rat, strain Fischer 344, females, in feed, site: any site (literature study), lesion: several types, types named in the paper, dosed 103 weeks, study length 116 weeks): 247 mg/kg/day (inactive); carcinogen call (rat, strain Fischer 344, males, in feed, site: adrenal gland, lesion: pheochromocytoma, dosed 80 weeks, study length 80 weeks): negative (inactive); carcinogen call (rat, strain Fischer 344, males, in feed, site: any site (literature study), lesion: several types, types named in the paper, dosed 103 weeks, study length 116 weeks): negative (inactive); TD50 (rat, strain Fischer 344, males, in feed, site: liver, lesion: hepatocellular adenoma + hepatocellular carcinoma + neoplastic nodule, dosed 103 weeks, study length 116 weeks): 2230 mg/kg/day

**Q.** What does the source list for `CCN(N=O)C(=O)NCCO`?
**A.** TD50 (hamster, strain Syrian Golden, females, by gavage, site: cervix uteri, lesion: one or several types, types not named, dosed 30 weeks, study length 75 weeks): 1.04 mg/kg/day; TD50 (hamster, strain Syrian Golden, females, by gavage, site: forestomach, lesion: benign tumor, dosed 30 weeks, study length 75 weeks): 1.76 mg/kg/day; TD50 (hamster, strain Syrian Golden, females, by gavage, site: liver, lesion: cholangioma, dosed 30 weeks, study length 75 weeks): 27.5 mg/kg/day; TD50 (hamster, strain Syrian Golden, females, by gavage, site: spleen, lesion: all vascular tumors, dosed 30 weeks, study length 75 weeks): 3.05 mg/kg/day; TD50 (rat, strain Fischer 344, females, in drinking water, site: mammary tissue, wider than the gland, lesion: carcinoma, dosed 30 weeks, study length 104 weeks): 0.748 mg/kg/day; TD50 (rat, strain Fischer 344, females, in drinking water, site: nervous system, lesion: one or several types, types not named, dosed 30 weeks, study length 104 weeks): 0.714 mg/kg/day; TD50 (rat, strain Fischer 344, females, in drinking water, site: skin, lesion: one or several types, types not named, dosed 30 weeks, study length 104 weeks): 0.956 mg/kg/day; TD50 (rat, strain Fischer 344, females, in drinking water, site: uterus, lesion: one or several types, types not named, dosed 30 weeks, study length 104 weeks): 0.972 mg/kg/day; TD50 (rat, strain Fischer 344, males, in drinking water, site: lung, lesion: one or several types, types not named, dosed 30 weeks, study length 104 weeks): 0.39 mg/kg/day; TD50 (rat, strain Fischer 344, males, in drinking water, site: nervous system, lesion: one or several types, types not named, dosed 30 weeks, study length 104 weeks): 0.769 mg/kg/day; TD50 (rat, strain Fischer 344, males, in drinking water, site: skin, lesion: one or several types, types not named, dosed 30 weeks, study length 104 weeks): 0.401 mg/kg/day; TD50 (rat, strain Fischer 344, males, in drinking water, site: tunica vaginalis, lesion: mesothelioma, dosed 30 weeks, study length 104 weeks): 0.226 mg/kg/day

**Q.** For `C=C/C1=C/C(C)C(C)(OC(C)=O)C(=O)OCC2=CC[N+]3(C)CCC(OC1=O)C23O` (centres undefined), which TD50 (rat, strain ACI, both sexes, in drinking water, site: liver, lesion: hemangioendothelial sarcoma, dosed 48 weeks, study length 68 weeks) is on record?
**A.** 3.01 mg/kg/day

**Q.** What about the TD50 (rat, strain ACI, both sexes, in drinking water, site: liver, lesion: neoplastic nodule, dosed 48 weeks, study length 68 weeks) of the same compound?
**A.** 0.697 mg/kg/day

**Q.** What about the TD50 (rat, strain ACI, both sexes, in drinking water, site: liver, lesion: several types, types named in the paper, dosed 48 weeks, study length 68 weeks) of the same compound?
**A.** 0.5 mg/kg/day
